Data from patent US9862711B2, “Pyrazine derivatives as phosphatidylinositol 3-kinase inhibitors” (NOVARTIS AG, priority 2014, dated 2018).

How the values were obtained:
PI 3-kinase beta = PI 3-kinase beta (Homo sapiens (Human), UniProt P42338); assay: Cellular p-Akt (S473) SureFire assay, Rat-1_PI3Kbeta cells (Assay I); type: cell-based; conditions: p-AKT (Ser473) in Rat-1 cells expressing myr-HA-hp110 beta, 1 h compound; read-out: Assay I PI3Kβ IC50
Excerpt: (§1) Cellular Assays for PI 3-Kinase Alpha (H), Beta (I) and Delta (J)
(§2) AlphaScreen (Amplified Luminescent Proximity Homogeneous Assay, ALPHA, Perkin Elmer) is a non-radioactive bead-based proximity assay technology to study biomolecular interactions in a homogenous microtiter plate format. The brand name SureFire denotes AlphaScreen assays that are adapted to quantify the phosphorylation of endogenous cellular proteins in cell lysates, by using matched antibody pairs, which consist of an anti-phospho-kinase and an anti-kinase antibody. The assay allows characterization of kinase signaling in cells as well as measurement of kinase inhibitor effects.
(§3) Rat-1 cell lines stably overexpressing activated PI 3-kinase class I isoforms Rat-1 pBABEpuro Myr-HA-hp110 delta clone 5 (Rat-1_PI3Kdelta) and Rat-1 pBABEpuro Myr-HA-hp110 alpha clone 6 (Rat-1_PI3Kalpha) and Rat-1 pBABEpuro Myr-HA-hp110 beta (Rat-1_PI3beta) were cultivated in complete growth medium (DMEM high glucose, 10% (v/v) fetal bovine serum, 1% (v/v) MEM NEAA, 10 mM HEPES, 2 mM L-glutamine, puromycin (10 μg/mL for Rat-1_PI3Kdelta and Rat-1_PI3Kalpha, 4 ug/mL for Rat-1_PI3beta), 1% (v/v) Pen/Strep) to 90% confluency at 37° C./5% CO2/90% humidity in a humidified CO2 incubator and were split twice a week. The following materials were used for p-AKT(5473) detection in Rat-1 cell lysates: Dulbecco's modified Eagle's medium (DMEM) high glucose (Gibco Invitrogen, Basel, Switzerland, Cat. No. 41965), heat inactivated fetal bovine serum, qualified (HI FBS; Gibco Invitrogen, Basel, Switzerland, Lot. No. 16140), MEM non essential amino acids (NEAA; Gibco Invitrogen, Basel, Switzerland, Cat. No. 11140), HEPES (Gibco Invitrogen, Basel, Switzerland, Cat. No. 15630), penicillin/streptomycin (Pen/Strep, 100×; Gibco Invitrogen, Basel, Switzerland, Cat. No. 15140-122), L-glutamine (Gibco Invitrogen, Basel, Switzerland, Cat. No. 25030), puromycin (Sigma Aldrich, Buchs, Switzerland, Cat. No. P9620), DMSO (MERCK, Dietikon, Switzerland, Cat. No. 8.02912.2500), H2O, MilliQ-H2O unless otherwise stated (MILLIPORE QGARDOOR1, Millipore, Zug, Switzerland), bovine serum albumine (BSA; Sigma Aldrich, Buchs, Switzerland Cat. No. A8412), SureFire p-Akt 1/2 (Ser473) Assay Kit (Perkin Elmer, Schwerzenbach, Switzerland, Cat. No. TGRAS50K).
(§4) The p-Akt (S473) SureFire assay measures the phosphorylation of endogenous cellular Akt 1/2 at Ser473 in cell lysates. Using Rat-1 cells stably expressing myr-HA-tagged versions of the human PI3Kdelta, PI3Kalpha, or PI3Kbeta p110 catalytic subunit isoforms, the assay was developed as a two-plate protocol in a 384-well format.
(§5) For compound testing, the cells were seeded at a density of 4000 (Rat-1_PI3Kdelta), 7500 (Rat-1_PI3Kalpha), or 6200 (Rat-1_PI3Kbeta) cells in 20 μl complete growth medium into cell culture treated 384-well plates and were grown at 37° C./5% CO2/90% humidity for 24 h. Shortly before compound transfer, the complete medium was removed, 30 μl assay buffer (DMEM high glucose, 1×MEM NEAA, 10 mM HEPES, 2 mM L-glutamine, 0.1% (w/v) BSA) was added and 10 μl of the compound predilutions were transferred to the cells. After treatment with compound for 1 h, the cells were lysed by the addition of 20 μl lysis buffer supplemented with 0.24% (w/v) BSA. Detection of p-AKT (Ser473) was performed with the SureFire p-Akt 1/2 (Ser473) Assay Kit according to the manufacturer's instructions using 5 ul of cell lysate in a total detection volume of 12 μl.
(§6) IC50 values of the percentage inhibition of each compound at 8 concentrations (usually 10, 3.0, 1.0, 0.3, 0.1, 0.030, 0.010 and 0.003 μM) n=2 were derived by fitting a sigmoidal dose-response curve to a plot of assay readout over inhibitor concentration as described. All fits were performed with the program XLfit4 (ID Business Solutions, Guildford, UK).

PI 3-kinase delta = PI 3-kinase delta (Homo sapiens (Human), UniProt O00329); assay: Cellular p-Akt (S473) SureFire assay, Rat-1_PI3Kdelta cells (Assay J); type: cell-based; conditions: p-AKT (Ser473) in Rat-1 cells expressing myr-HA-hp110 delta, 1 h compound; read-out: Assay J PI3Kδ IC50
Sequence of PI 3-kinase delta (O00329 whole entry): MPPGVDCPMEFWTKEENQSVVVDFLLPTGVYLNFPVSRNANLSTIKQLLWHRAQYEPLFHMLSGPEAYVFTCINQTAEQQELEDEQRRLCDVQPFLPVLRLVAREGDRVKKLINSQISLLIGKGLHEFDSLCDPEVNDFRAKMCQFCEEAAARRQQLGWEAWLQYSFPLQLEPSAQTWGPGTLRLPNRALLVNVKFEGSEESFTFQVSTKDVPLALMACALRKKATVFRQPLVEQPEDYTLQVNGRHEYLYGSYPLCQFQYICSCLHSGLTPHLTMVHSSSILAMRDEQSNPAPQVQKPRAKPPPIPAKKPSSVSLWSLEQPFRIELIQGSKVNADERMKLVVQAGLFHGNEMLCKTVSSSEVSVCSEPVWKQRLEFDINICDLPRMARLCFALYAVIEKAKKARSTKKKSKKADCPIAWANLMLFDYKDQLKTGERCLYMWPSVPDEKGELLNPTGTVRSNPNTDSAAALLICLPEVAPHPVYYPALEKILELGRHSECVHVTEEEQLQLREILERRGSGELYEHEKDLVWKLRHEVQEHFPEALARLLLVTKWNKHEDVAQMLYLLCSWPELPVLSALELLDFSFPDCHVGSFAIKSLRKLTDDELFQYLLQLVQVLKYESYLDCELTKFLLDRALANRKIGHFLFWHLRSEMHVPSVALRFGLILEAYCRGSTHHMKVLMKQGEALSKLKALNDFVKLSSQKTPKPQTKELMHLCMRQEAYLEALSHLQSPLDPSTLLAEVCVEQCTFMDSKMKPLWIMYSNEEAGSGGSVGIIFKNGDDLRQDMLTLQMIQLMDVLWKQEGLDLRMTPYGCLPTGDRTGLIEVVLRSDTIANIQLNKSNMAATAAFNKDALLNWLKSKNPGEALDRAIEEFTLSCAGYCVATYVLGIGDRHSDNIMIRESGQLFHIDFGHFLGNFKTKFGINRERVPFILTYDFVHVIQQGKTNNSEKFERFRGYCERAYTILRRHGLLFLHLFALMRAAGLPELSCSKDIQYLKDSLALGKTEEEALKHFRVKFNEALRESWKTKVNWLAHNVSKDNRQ
Sequence of PI 3-kinase delta (Q63787 whole entry partner): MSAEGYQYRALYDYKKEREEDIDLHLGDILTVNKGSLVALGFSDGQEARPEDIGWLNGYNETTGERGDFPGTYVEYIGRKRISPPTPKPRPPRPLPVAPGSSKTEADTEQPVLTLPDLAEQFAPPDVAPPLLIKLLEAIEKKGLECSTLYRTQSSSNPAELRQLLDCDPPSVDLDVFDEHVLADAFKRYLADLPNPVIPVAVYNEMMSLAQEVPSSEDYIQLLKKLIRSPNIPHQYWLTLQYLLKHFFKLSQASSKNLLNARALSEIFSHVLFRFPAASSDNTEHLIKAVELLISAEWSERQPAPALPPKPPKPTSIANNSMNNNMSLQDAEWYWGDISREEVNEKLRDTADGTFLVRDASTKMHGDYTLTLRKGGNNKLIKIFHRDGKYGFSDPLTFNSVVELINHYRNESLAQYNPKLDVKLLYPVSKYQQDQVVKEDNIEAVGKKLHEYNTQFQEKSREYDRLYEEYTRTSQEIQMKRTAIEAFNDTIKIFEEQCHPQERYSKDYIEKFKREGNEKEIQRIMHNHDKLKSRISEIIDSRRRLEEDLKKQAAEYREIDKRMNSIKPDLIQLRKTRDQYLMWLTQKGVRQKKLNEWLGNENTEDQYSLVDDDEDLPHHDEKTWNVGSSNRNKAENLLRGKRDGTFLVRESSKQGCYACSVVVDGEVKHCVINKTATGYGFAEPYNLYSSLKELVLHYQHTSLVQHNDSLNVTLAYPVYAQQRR
Excerpt: as §1, §2, §3, §4, §5, §6

Sequence of PI 3-kinase beta (P42338 whole entry): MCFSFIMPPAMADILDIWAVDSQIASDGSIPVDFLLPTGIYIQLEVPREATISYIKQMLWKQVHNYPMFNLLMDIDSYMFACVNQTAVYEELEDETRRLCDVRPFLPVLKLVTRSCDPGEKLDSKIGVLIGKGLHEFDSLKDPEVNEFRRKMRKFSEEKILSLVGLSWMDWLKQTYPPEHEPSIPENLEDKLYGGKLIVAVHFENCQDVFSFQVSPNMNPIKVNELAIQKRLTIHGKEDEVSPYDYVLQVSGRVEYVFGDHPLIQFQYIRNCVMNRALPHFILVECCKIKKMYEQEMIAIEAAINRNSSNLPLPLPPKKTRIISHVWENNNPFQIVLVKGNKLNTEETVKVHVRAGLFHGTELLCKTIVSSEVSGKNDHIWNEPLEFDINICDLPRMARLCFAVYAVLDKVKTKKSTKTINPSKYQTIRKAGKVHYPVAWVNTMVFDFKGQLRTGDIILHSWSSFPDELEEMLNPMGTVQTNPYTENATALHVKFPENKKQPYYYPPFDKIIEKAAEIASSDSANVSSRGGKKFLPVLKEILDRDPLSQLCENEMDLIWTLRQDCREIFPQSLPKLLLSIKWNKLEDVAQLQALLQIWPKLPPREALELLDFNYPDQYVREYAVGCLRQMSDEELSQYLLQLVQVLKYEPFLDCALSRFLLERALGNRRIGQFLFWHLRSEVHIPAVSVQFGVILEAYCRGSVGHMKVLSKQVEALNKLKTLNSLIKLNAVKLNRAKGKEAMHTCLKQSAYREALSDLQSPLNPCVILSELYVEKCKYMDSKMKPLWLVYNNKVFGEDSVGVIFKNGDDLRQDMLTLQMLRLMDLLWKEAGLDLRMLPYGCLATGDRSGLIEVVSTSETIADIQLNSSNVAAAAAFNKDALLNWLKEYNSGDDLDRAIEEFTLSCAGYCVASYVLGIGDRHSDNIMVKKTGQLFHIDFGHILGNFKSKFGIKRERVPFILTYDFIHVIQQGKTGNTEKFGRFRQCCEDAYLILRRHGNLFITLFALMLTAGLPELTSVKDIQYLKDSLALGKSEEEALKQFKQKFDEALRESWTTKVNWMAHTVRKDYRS
Sequence of PI 3-kinase beta (Q63787 whole entry partner): as the sequence (Q63787 whole entry partner) above

| IC50 (PI 3-kinase beta) | IC50 (PI 3-kinase delta) | Compound |
| --- | --- | --- |
| 0.784 µM | 0.367 µM | Cc1ccc(S(=O)(=O)NCC(C)(C)O)cc1-c1cncc(-c2cn(C)nc2C)n1 [Example 2, 3-[6-(1,3-Dimethyl-1H-pyrazol-4-yl)-pyrazin-2-yl]-N-(2-hydroxy-2-methyl-propyl)-4-methyl-benzenesulfonamide] |
| 3.18 µM | 1.37 µM | Cc1ccc(S(=O)(=O)NCCC(C)(C)O)cc1-c1cncc(-c2cn(C)nc2C)n1 [Example 3, 3-[6-(1,3-Dimethyl-1H-pyrazol-4-yl)-pyrazin-2-yl]-N-(3-hydroxy-3-methyl-butyl)-4-methyl-benzenesulfonamide] |
| 0.833 µM | 0.285 µM | Cc1ccc(S(=O)(=O)NCC2(C)COC2)cc1-c1cncc(-c2cn(C)nc2C)n1 [Example 4, Trans 3-[6-(1,3-Dimethyl-1H-pyrazol-4-yl)-pyrazin-2-yl]-4-methyl-N-(3-methyl-oxetan-3-ylmethyl)-benzenesulfonamide] |
| 9.42 µM | 0.54 µM | Cc1ncc(-c2cncc(-c3cc(S(=O)(=O)N[C@H]4CC[C@H](O)CC4)ccc3C)n2)s1 [Example 5, Trans N-(4-Hydroxycyclohexyl)-4-methyl-3-(6-(2-methylthiazol-5-yl)pyrazin-2-yl)benzenesulfonamide] |
| 6.98 µM | 1.68 µM | Cc1ccc(S(=O)(=O)NCCC(C)(C)O)cc1-c1cncc(-c2cnn(CCN3CCOCC3)c2)n1 [Example 9, N-(3-Hydroxy-3-methyl-butyl)-4-methyl-3-{6-[1-(2-morpholin-4-yl-ethyl)-1H-pyrazol-4-yl]-pyrazin-2-yl}-benzenesulfonamide] |
| 3.83 µM | 0.771 µM | Cc1ccc(S(=O)(=O)NCCC(C)(C)O)cc1-c1cncc(-c2cn(CCN3CCOCC3)nc2C)n1 [Example 10, N-(3-Hydroxy-3-methyl-butyl)-4-methyl-3-{6-[3-methyl-1-(2-morpholin-4-yl-ethyl)-1H-pyrazol-4-yl]-pyrazin-2-yl}-benzenesulfonamide] |
| > 10 µM | 1.05 µM | Cc1ccc(S(=O)(=O)N[C@H]2CC[C@H](O)CC2)cc1-c1cncc(-c2cccnc2)n1 [Example 11, Trans N-(4-Hydroxy-cyclohexyl)-4-methyl-3-(6-pyridin-3-yl-pyrazin-2-yl)-benzenesulfonamide] |
